# Results published in US20190216761A1, “COMPOSITIONS COMPRISING 15-HEPE AND METHODS OF USING THE SAME” (Afimmune Limited, priority 2015, published 2019).
# Marks after values point to notes of the source that are not given here.
# Assays:
# rPPARδ = assay: PPAR antagonist reporter assay (reference agonist at EC80); assay type: cell-based, rat
# Procedure: (§1) This study utilized proprietary reporter cells expressing a hybrid receptor comprising the N-terminal Gal4 DNA binding domain fused to the ligand binding domain of the specific human nuclear receptor (hPPARα, hPPARδ, and hPPARγ) and rat nuclear receptor (rPPARα, rPPARδ, and rPPARγ). The reporter vectors used in this Example comprise the firefly luciferase gene functionally linked to the Gal4 upstream activation sequence.
# (§2) Nuclear Receptor assay was performed by suspending Reporter Cells in CRM containing 10% charcoal stripped FBS. 2×-EC80 concentrations of the appropriate reference agonist were then added to the Reporter Cell suspension, and 100 μL of the mixture dispensed into wells of a white 96-well plate. Test compounds were diluted using compound screening medium (CSM) containing 10% charcoal stripped FBS to generate “2×-concentration” treatment media. Immediately after this dilution step, 100 μL of each diluted 2×-concentration treatment medium was dispensed (in triplicate) into the Reporter Cell-containing assay wells.
# (§3) After incubation at 37° C. for 24 hours, the treatment media was discarded. Each well was rinsed once with LCM Buffer; LCM substrate was then added. After incubation for 30 minutes at 37° C., fluorescence was measured to determine the relative number of live cells per assay well. LCM substrate was then discarded and 100 μL of Luciferase Detection Reagent substrate was added to each well. RLUs were quantified from each well to determine nuclear receptor activities.
# hPPARα = target: T1, hPPARα (Homo sapiens, UniProt Q07869); assay: PPAR agonist reporter assay (Gal4 hybrid receptor, luciferase); assay type: cell-based
# T1 construct: expressed in transfected cells
# T1 sequence (Q07869 239-466 limits assumed): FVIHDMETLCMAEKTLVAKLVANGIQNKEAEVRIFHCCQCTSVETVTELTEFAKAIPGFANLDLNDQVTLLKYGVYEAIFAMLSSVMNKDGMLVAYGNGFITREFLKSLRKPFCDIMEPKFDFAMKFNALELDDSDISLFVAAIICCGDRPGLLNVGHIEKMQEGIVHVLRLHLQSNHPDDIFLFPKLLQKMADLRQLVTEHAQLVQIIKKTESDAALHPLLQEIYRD
# Procedure: as §1
# Nuclear Receptor assay was performed by dispensing 100 μL of a suspension of Reporter Cells in Cell Recovery Medium (CRM) containing 10% charcoal stripped FBS into each well of a white 96-well plate. Test compounds were diluted using compound screening medium (CSM) containing 10% charcoal stripped FBS to generate “2×-concentration” treatment media. Immediately after this dilution step, 100 μL of each diluted 2×-concentration treatment medium was dispensed (in triplicate) into the Reporter Cell-containing assay wells.
# After incubation at 37° C. for 24 hours, the treatment media was discarded. 100 μL of Luciferase Detection Reagent substrate was added to each well and RLUs were quantified from each well to determine nuclear receptor activities.
# rPPARγ Reporter Cells = assay: Live cell multiplex assay; assay type: cell-based
# Procedure: as §1, §2, §3
# hPPARδ Reporter Cells = assay: Live cell multiplex assay; assay type: cell-based
# Procedure: as §1, §2, §3
# rPPARα Reporter Cells = assay: Live cell multiplex assay; assay type: cell-based
# Procedure: as §1, §2, §3
# hPPARγ Reporter Cells = assay: Live cell multiplex assay; assay type: cell-based
# Procedure: as §1, §2, §3
# hPPARα Reporter Cells = assay: Live cell multiplex assay; assay type: cell-based
# Procedure: as §1, §2, §3
# rPPARδ Reporter Cells = assay: Live cell multiplex assay; assay type: cell-based
# Procedure: as §1, §2, §3
structure (smiles),measurement,setting,value
"CC/C=C\C/C=C\C/C=C\C/C=C\C/C=C\CCCC(=O)OCC [EPA-EE, EPA ethyl ester, reference compound]","% Inhibition of agonist-stimulated receptor activity vs. 0.10% DMSO, rPPAR-δ",rPPARδ; 137 nM,26%
same,"% Inhibition of agonist-stimulated receptor activity vs. 0.10% DMSO, rPPAR-δ",rPPARδ; 412 nM,4.0%
same,"% Inhibition of agonist-stimulated receptor activity vs. 0.10% DMSO, rPPAR-δ","rPPARδ; 1,235 nM",5.7%
same,"% Inhibition of agonist-stimulated receptor activity vs. 0.10% DMSO, rPPAR-δ","rPPARδ; 3,704 nM",8.1%
same,"% Inhibition of agonist-stimulated receptor activity vs. 0.10% DMSO, rPPAR-δ","rPPARδ; 11,111 nM",3.7%
same,"% Inhibition of agonist-stimulated receptor activity vs. 0.10% DMSO, rPPAR-δ","rPPARδ; 33,333 nM",7.2%
same,"% Inhibition of agonist-stimulated receptor activity vs. 0.10% DMSO, rPPAR-δ","rPPARδ; 100,000 nM",10%
same,"% Inhibition of agonist-stimulated receptor activity vs. 0.10% DMSO, rPPAR-δ","rPPARδ; 300,000 nM",36%
same,"inhibition of rat PPARs (in words), rPPARδ",rPPARδ; at higher test concentrations,does not exhibit similar inhibitory activity
same,Fold-Activation (vs. 0.10% DMSO) hPPAR-α,hPPARα; 137 nM,0.88 fold
same,Fold-Activation (vs. 0.10% DMSO) hPPAR-α,hPPARα; 412 nM,1.0 fold
same,Fold-Activation (vs. 0.10% DMSO) hPPAR-α,"hPPARα; 1,235 nM",0.90 fold
same,Fold-Activation (vs. 0.10% DMSO) hPPAR-α,"hPPARα; 3,704 nM",0.89 fold
same,Fold-Activation (vs. 0.10% DMSO) hPPAR-α,"hPPARα; 11,111 nM",0.86 fold
same,Fold-Activation (vs. 0.10% DMSO) hPPAR-α,"hPPARα; 33,333 nM",0.95 fold
same,Fold-Activation (vs. 0.10% DMSO) hPPAR-α,"hPPARα; 100,000 nM",1.1 fold
same,Fold-Activation (vs. 0.10% DMSO) hPPAR-α,"hPPARα; 300,000 nM",2.0* fold
same,"% Live cells vs. 0.10% DMSO, rPPAR-γ",rPPARγ Reporter Cells; 137 nM,97%
same,"% Live cells vs. 0.10% DMSO, rPPAR-γ",rPPARγ Reporter Cells; 412 nM,101%
same,"% Live cells vs. 0.10% DMSO, rPPAR-γ","rPPARγ Reporter Cells; 1,235 nM",102%
same,"% Live cells vs. 0.10% DMSO, rPPAR-γ","rPPARγ Reporter Cells; 3,704 nM",101%
same,"% Live cells vs. 0.10% DMSO, rPPAR-γ","rPPARγ Reporter Cells; 11,111 nM",100%
same,"% Live cells vs. 0.10% DMSO, rPPAR-γ","rPPARγ Reporter Cells; 33,333 nM",101%
same,"% Live cells vs. 0.10% DMSO, rPPAR-γ","rPPARγ Reporter Cells; 100,000 nM",98%
same,"% Live cells vs. 0.10% DMSO, rPPAR-γ","rPPARγ Reporter Cells; 300,000 nM",102%
same,"% Live cells vs. 0.10% DMSO, hPPAR-δ",hPPARδ Reporter Cells; 137 nM,97%
same,"% Live cells vs. 0.10% DMSO, hPPAR-δ",hPPARδ Reporter Cells; 412 nM,97%
same,"% Live cells vs. 0.10% DMSO, hPPAR-δ","hPPARδ Reporter Cells; 1,235 nM",99%
same,"% Live cells vs. 0.10% DMSO, hPPAR-δ","hPPARδ Reporter Cells; 3,704 nM",100%
same,"% Live cells vs. 0.10% DMSO, hPPAR-δ","hPPARδ Reporter Cells; 11,111 nM",101%
same,"% Live cells vs. 0.10% DMSO, hPPAR-δ","hPPARδ Reporter Cells; 33,333 nM",101%
same,"% Live cells vs. 0.10% DMSO, hPPAR-δ","hPPARδ Reporter Cells; 100,000 nM",103%
same,"% Live cells vs. 0.10% DMSO, hPPAR-δ","hPPARδ Reporter Cells; 300,000 nM",103%
same,"% Live cells vs. 0.10% DMSO, rPPAR-α",rPPARα Reporter Cells; 137 nM,89%
same,"% Live cells vs. 0.10% DMSO, rPPAR-α",rPPARα Reporter Cells; 412 nM,98%
same,"% Live cells vs. 0.10% DMSO, rPPAR-α","rPPARα Reporter Cells; 1,235 nM",102%
same,"% Live cells vs. 0.10% DMSO, rPPAR-α","rPPARα Reporter Cells; 3,704 nM",103%
same,"% Live cells vs. 0.10% DMSO, rPPAR-α","rPPARα Reporter Cells; 11,111 nM",102%
same,"% Live cells vs. 0.10% DMSO, rPPAR-α","rPPARα Reporter Cells; 33,333 nM",100%
same,"% Live cells vs. 0.10% DMSO, rPPAR-α","rPPARα Reporter Cells; 100,000 nM",95%
same,"% Live cells vs. 0.10% DMSO, rPPAR-α","rPPARα Reporter Cells; 300,000 nM",94%
same,"% Live cells vs. 0.10% DMSO, hPPAR-γ",hPPARγ Reporter Cells; 137 nM,88%
same,"% Live cells vs. 0.10% DMSO, hPPAR-γ",hPPARγ Reporter Cells; 412 nM,99%
same,"% Live cells vs. 0.10% DMSO, hPPAR-γ","hPPARγ Reporter Cells; 1,235 nM",101%
same,"% Live cells vs. 0.10% DMSO, hPPAR-γ","hPPARγ Reporter Cells; 3,704 nM",101%
same,"% Live cells vs. 0.10% DMSO, hPPAR-γ","hPPARγ Reporter Cells; 11,111 nM",101%
same,"% Live cells vs. 0.10% DMSO, hPPAR-γ","hPPARγ Reporter Cells; 33,333 nM",102%
same,"% Live cells vs. 0.10% DMSO, hPPAR-γ","hPPARγ Reporter Cells; 100,000 nM",103%
same,"% Live cells vs. 0.10% DMSO, hPPAR-γ","hPPARγ Reporter Cells; 300,000 nM",92%
same,"% Live cells vs. 0.10% DMSO, hPPAR-α",hPPARα Reporter Cells; 137 nM,99%
same,"% Live cells vs. 0.10% DMSO, hPPAR-α",hPPARα Reporter Cells; 412 nM,93%
same,"% Live cells vs. 0.10% DMSO, hPPAR-α","hPPARα Reporter Cells; 1,235 nM",113%
same,"% Live cells vs. 0.10% DMSO, hPPAR-α","hPPARα Reporter Cells; 3,704 nM",112%
same,"% Live cells vs. 0.10% DMSO, hPPAR-α","hPPARα Reporter Cells; 11,111 nM",116%
same,"% Live cells vs. 0.10% DMSO, hPPAR-α","hPPARα Reporter Cells; 33,333 nM",112%
same,"% Live cells vs. 0.10% DMSO, hPPAR-α","hPPARα Reporter Cells; 100,000 nM",96%
same,"% Live cells vs. 0.10% DMSO, hPPAR-α","hPPARα Reporter Cells; 300,000 nM",80%
same,"% Live cells vs. 0.10% DMSO, rPPAR-δ",rPPARδ Reporter Cells; 137 nM,100%
same,"% Live cells vs. 0.10% DMSO, rPPAR-δ",rPPARδ Reporter Cells; 412 nM,94%
same,"% Live cells vs. 0.10% DMSO, rPPAR-δ","rPPARδ Reporter Cells; 1,235 nM",98%
same,"% Live cells vs. 0.10% DMSO, rPPAR-δ","rPPARδ Reporter Cells; 3,704 nM",95%
same,"% Live cells vs. 0.10% DMSO, rPPAR-δ","rPPARδ Reporter Cells; 11,111 nM",100%
same,"% Live cells vs. 0.10% DMSO, rPPAR-δ","rPPARδ Reporter Cells; 33,333 nM",99%
same,"% Live cells vs. 0.10% DMSO, rPPAR-δ","rPPARδ Reporter Cells; 100,000 nM",101%
same,"% Live cells vs. 0.10% DMSO, rPPAR-δ","rPPARδ Reporter Cells; 300,000 nM",102%
